Assays:
gastric mucosa = assay: Gastric mucosa changes in the rat; format: in vivo
[1] = test system: osteoarthrosis of the spine and of the knee; assay: Clinical open study with physiotherapy control; format: in vivo, patients
Description: 2. In an open running study with control, there was investigated the action of diacetylrhein against osteoarthrosis of the spine and of the knee in 70 patients (35/35). The dosage administered was 100 mg of diacetylrhein per day. The period of treatment was 60 days and the period of observation was 75 days. The test parameters were pain and movement limitation. The parameters were evaluated according to a score system. The control group comprised 35 patients in the case of which exclusively physiotherapeutic measures were carried out. Physiotherapy was also carried out in the diacetylrhein treatment group.

cotton pellet granuloma = assay: Cotton pellet granuloma in rats; format: in vivo, rat
Description: The effectiveness of diacetylrhein was determined in chronic inflammation models after oral administration. The following experimental models were used: cotton pellet granuloma in rats and arthrosis in rabbits induced by the intraarticular administration of vitamin A. a) Cotton pellet granuloma in rats. Young sexually mature rats (n=10) were given 25, 50 or 100 mg diacetylrhein/kg or 5 mg indomethacin/kg or 100 mg acetylsalicylic acid/kg daily for 5 days. A control group only treated with water was also used. Implantation of the pellets took place on the first day of treatment.

[2] = test system: arthrosis induced by the intraarticular administration of vitamin A; assay: Vitamin A arthrosis in rabbits; format: in vivo, rabbit; settings: for Clinical signs of arthrosis (disturbances of movement): 7 rabbits
Description: The effectiveness of diacetylrhein was determined in chronic inflammation models after oral administration. The following experimental models were used: cotton pellet granuloma in rats and arthrosis in rabbits induced by the intraarticular administration of vitamin A. b) Vitamin A arthrosis. An arthrosis-like joint change was initiated in two groups each of 10 rabbits (white New Zealanders) by means of three intraarticular injections of 30,000 IU of Vitamin A over the course of 9 days. 56 days later, 10 animals were treated with 3 mg of diacetylrhein/kg/day for 8 weeks. […] Furthermore, the curative action of diacetylrhein was compared with that of acetylsalicylic acid on each of 7 rabbits which, after 6 days pre-treatment with three times 10,000 IU Vitamin A and a 26 day treatment-free interval for 8 weeks, received either 5 mg of diacetylrhein/kg/day (experimental group) or 15 mg of acetylsalicylic acid/kg/day (positive control group) or remained untreated (negative control group). […] In the negative control group, during the following 8 weeks, the clinical signs of a manifest arthrosis increased.

osteoarthrosis = assay: Clinical randomised double blind compatibility study (oesophagogastroduodenoscopic findings); format: in vivo, patients; settings: after 4 weeks
Description: 4. The action of diacetylrhein was investigated in 23 patients (12/11) with osteoarthrosis in a randomised double blind study using the “double dummy technique” (compatibility study). The dosage administered was 50 mg of diacetylrhein twice daily and 250 mg of naproxen three times daily. The period of treatment was 4 weeks. The test parameters were the oesophagogastroduodenoscopic findings before and after the therapy. Only patients with normal mucosal findings or with slight mucosal lesions (grade 1) were used in the study.

localised arthrosis = assay: Clinical single blind crossover study against naproxen; format: in vivo, patients
Description: 3. The action of diacetylrhein in the case of localised arthrosis in 20 patients was investigated in a single blind crossover study against naproxen. […] Subsequently, there followed a three day wash-out phase and a further treatment with 250 mg of naproxen twice daily for a further 20 days. In the second group, the reverse sequence was used. The period of treatment was, in all, 43 days. The test parameters of pain, compression pain, passive movement pain, functional limitation and swelling were determined according to a score system.

[3] = test system: coxarthrosis and gonarthrosis; assay: Clinical double-blind study against naproxen with placebo after-treatment; format: in vivo, patients; settings: for Improvement in all test parameters (pain and movement symptoms, functional limitation, compatibility) in comparison with the initial values: 60 days
Description: 1. The action of diacetylrhein was investigated in coxarthrosis and gonarthrosis in 95 (49/46) patients in a double-blind study against naproxen and subsequent placebo after-treatment. The dosage administered was 50 mg of diacetylrhein twice daily or 750 mg of naproxen daily. The period of treatment was 60 days after a 7 day wash-out phase. The subsequent placebo treatment extended over 60 days.
Test parameters were the pain and movement symptoms according to a score scale, functional limitation and compatibility.

in vivo = settings: rat, mouse, cat
[4] = crossover study, 43 days in all

With `COc1ccc2c(c1)c(CC(=O)O)c(C)n2C(=O)c1ccc(Cl)cc1` [indomethacin] the Mucosal damage (gastric mucosa; in vivo, 10 mg/kg) was “certainly did”, the “Diameter of the erosions” value (gastric mucosa; in vivo, 10 mg/kg, 3 days) was 1 to 3 mm and the “Erosions of the gastric mucosa” value (gastric mucosa; in vivo, 20 mg/kg) was “distinct mucosal damages”.
In the case of `CC(=O)Oc1cccc2c1C(=O)c1c(OC(C)=O)cc(C(=O)O)cc1C2=O` [diacetylrhein, Diacetylrhein], the “Erosions of the gastric mucosa” value (gastric mucosa; single administration of 400 mg/kg) is reported as “did not give rise to any erosions”, the Mucosal damage (gastric mucosa; twice daily 100 mg/kg over 3 days) is reported as “did not initiate any mucosal damage” and the “Effect after discontinuation of the treatment” value ([1]; 100 mg per day for 60 days, observation 75 days) is reported as “continuing therapeutic effect (hang-over effect)”. For the same compound, the “Pain and movement limitation (all parameters, score system) versus control group” value ([1]; 100 mg per day, 60 days, plus physiotherapy, control physiotherapy only) was “statistically significant superiority”, the “Fresh and dry weights of the granuloma” value (cotton pellet granuloma; rats n=10, oral, 25, 50 or 100 mg/kg daily for 5 days, in comparison with the control group) was “significant and clearly dosage-dependent reduction” and the “Weights of the thymus and adrenals” value (cotton pellet granuloma; rats, during the 5 days treatment) was “did not change”. The “Action on granuloma compared with reference drugs” value (cotton pellet granuloma; rats, oral, 100 mg diacetylrhein/kg daily for 5 days vs 5 mg indomethacin/kg or 100 mg acetylsalicylic acid/kg) was “corresponded to about the action of 5 mg indomethacin or of 100 mg acetylsalicylic acid”, the “Clinical signs of arthrosis (disturbances of movement)” value ([2]; 5 mg/kg/day for 8 weeks, curative) was “improved significantly” and the “Macroscopically and microscopically recognisable joint changes” value ([2]; rabbits, 3 mg/kg/day for 8 weeks, in comparison with the control group) was “significantly reduced”. For the same compound, the “Patients with mucosal lesions of grade 2 (endoscopic findings)” value (osteoarthrosis; 50 mg twice daily, one case) was 10%, the “Pain, compression pain, passive movement pain, functional limitation and swelling (score system) in comparison with naproxen” value (localised arthrosis; 50 mg twice daily for 20 days vs 250 mg naproxen twice daily for 20 days, crossover) was “superiority” and the Clinical laboratory parameters (localised arthrosis; [4]) was “no changes”. The Side effects (localised arthrosis; [4]) was “No noteworthy side effects”, the “Improvement in all test parameters (pain and movement symptoms, functional limitation, compatibility) in comparison with the initial values” ([3]; 50 mg twice daily, P<0.01) was “statistically significant rate of improvement” and the “Night pain and pressure pain after discontinuation, in comparison with the naproxen/placebo collective” value ([3]; 30 days after discontinuation, 5% level) was “difference was also verified”. For the same compound, the “Spontaneous pain and active and passive movement pain after discontinuation, in comparison with the naproxen/placebo collective” value ([3]; days 90 and 120, placebo after-treatment, P<0.01) was “statistically significant superiority”, the LD50 (in vivo) was 119 to 339 mg/kg and the LD50 (in vivo; po) was 1900 to 7900 mg/kg.
For `CC(C)Cc1ccc(C(C)C(=O)O)cc1` (stereo not shown) [ibuprofen], the “Erosions of the gastric mucosa” value (gastric mucosa; in vivo, 200 mg/kg) was “distinct mucosal damages”.
In the case of `COc1ccc2cc([C@H](C)C(=O)O)ccc2c1` [naproxen, reference compound], the “Patients with mucosal lesions of grade 2, 3 and 4 (endoscopic findings)” value (osteoarthrosis; 250 mg three times daily, 5 patients) is reported as 50% and the “Improvement in all test parameters (pain and movement symptoms, functional limitation, compatibility) in comparison with the initial values” ([3]; 750 mg daily, P<0.05) is reported as “statistically significant rate of improvement”.
For `CC(=O)Oc1ccccc1C(=O)O` [acetylsalicylic acid, reference compound], the “Clinical signs of arthrosis (disturbances of movement)” value ([2]; 15 mg/kg/day for 8 weeks, positive control group) was “improved significantly”.

— patent US6624192B1, “Process for production of diacetylrhein” (Madaus AG, priority 1991, dated 2003)
